Assay results from PMC2225448 (Structure(London, England:1993), 2007).

Biological target: T1, SOCS4/ElonginBC (Homo sapiens, UniProt Q15369+Q15370+Q8WXH5)
T1 construct: Human SOCS4 (amino acids 274–437); made in house; host or cells: E. coli BL21(DE3)
Assay: ITC binding of phosphotyrosine peptides to SOCS4/ElonginBC
Details: 50 mM HEPES pH 7.5, 150 mM NaCl, 1 mM DTT, 20°C; for KB × 10^5: association constant, ± curve fitting error

[1] = 0.3–0.4 mM peptide injected into 15 μM protein, single binding site model

T1 sequence (Q8WXH5 274-437): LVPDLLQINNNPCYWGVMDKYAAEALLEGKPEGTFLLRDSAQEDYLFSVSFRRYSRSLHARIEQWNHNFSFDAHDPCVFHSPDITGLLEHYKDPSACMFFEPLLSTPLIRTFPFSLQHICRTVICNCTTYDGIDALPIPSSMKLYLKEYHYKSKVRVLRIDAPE
T1 sequence (Q15369 17-112 partner limits assumed): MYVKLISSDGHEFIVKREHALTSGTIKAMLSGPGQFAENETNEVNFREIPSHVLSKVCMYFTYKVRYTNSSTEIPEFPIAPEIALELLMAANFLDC
T1 sequence (Q15370 whole entry partner, the tested form may be a part): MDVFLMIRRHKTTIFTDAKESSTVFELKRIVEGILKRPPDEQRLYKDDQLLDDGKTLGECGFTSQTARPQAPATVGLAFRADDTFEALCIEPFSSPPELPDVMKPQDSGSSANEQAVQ
From the text: Blank titrations were subtracted from binding data, and data were processed by using ORIGIN software provided with the instrument.

Row | Compound | KB × 10^5 | KD [1] | Kd [1] [µM]
1 | CC[C@H](C)[C@H](NC(=O)[C@@H](NC(=O)[C@H](Cc1ccc(OP(=O)(O)O)cc1)NC(=O)[C@H](CCC(=O)O)NC(=O)[C@H](Cc1ccccc1)NC(=O)[C@H](CO)NC(=O)[C@H](C)N)[C@@H](C)O)C(=O)N[C@@H](CC(C)C)C(=O)N[C@@H](CC(=O)O)C(=O)N1CCC[C@H]1C(=O)N[C@@H](CO)C(=O)O [EpoR pY402] | 1.30 ± 0.16 10^5 M^−1 | – | –
2 | CC(C)[C@H](NC(=O)[C@H](CCCCN)NC(=O)[C@H](Cc1ccc(O)cc1)NC(=O)[C@H](Cc1ccc(OP(=O)(O)O)cc1)NC(=O)[C@H](CCC(=O)O)NC(=O)[C@H](CCCCN)NC(=O)[C@H](CC(=O)O)NC(=O)[C@@H](N)CCC(N)=O)C(=O)N[C@@H](CCCCN)C(=O)N[C@@H](CCC(=O)O)C(=O)N1CCC[C@H]1C(=O)NCC(=O)O [JAK2 pY1007] | 3.43 ± 0.25 10^5 M^−1 | low micromolar | < 3
3 | CC[C@H](C)[C@H](NC(=O)[C@H](Cc1ccc(O)cc1)NC(=O)[C@@H](NC(=O)[C@H](Cc1ccc(OP(=O)(O)O)cc1)NC(=O)[C@H](CC(N)=O)NC(=O)[C@H](CC(N)=O)NC(=O)CNC(=O)[C@@H](N)CC(N)=O)C(C)C)C(=O)N[C@@H](CC(=O)O)C(=O)N1CCC[C@H]1C(=O)N[C@H](C(=O)O)[C@@H](C)O [KIT pY568] | 3.43 ± 0.24 10^5 M^−1 | – | –
